Source: patent US20190328784A1, “CHIMERIC ANTIGEN RECEPTORS (CARS) SPECIFIC FOR MUC1 AND METHODS FOR THEIR USE” (Poseida Therapeutics, Inc., priority 2016, published 2019)
Entries after “also recorded” stand apart in the source; their conditions may differ. Read-outs that look alike come from different tables or passages of the source.

T1: cleaved, non-shed MUC1-C (Homo sapiens, UniProt P15941)
T1 construct: expressed in transfected cells; host or cells: K562, Raji and RPMI8226 cells modified to express MUC1-C
T1 sequence (P15941 with tags, fused parts or gaps): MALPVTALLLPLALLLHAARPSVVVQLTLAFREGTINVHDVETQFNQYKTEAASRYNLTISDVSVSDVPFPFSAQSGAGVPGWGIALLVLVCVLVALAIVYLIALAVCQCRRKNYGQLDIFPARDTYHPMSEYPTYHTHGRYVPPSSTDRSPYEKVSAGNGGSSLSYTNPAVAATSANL

B1: F1C-HL: MUC1 scFv CAR; single chain antibody SEQ ID NO: 22 (protein)
scFv: QITLKESGPGILQPSQTLSLTCSFSGFSLSTSGMGVSWIRQPSGKGLEWLSHIYWDDDKRYNPSLKSRLSISKDTSRNQVFLKITSVDTADTATYYCAPGVSSWFPYWGPGTLVTVSAGGGGSGGGGSGGGGSSIVMTQTPKFLPVSAGDRVTVTCKASQSVGNYVAWYQQKPGQSPKLLIYFASNRYSGVPDRFTGSGSGTDFTFTISSVQVEDLAVYFCQQHYIFPYTFGSGTKLEIK
modifications: left off: a dimerising Fc or GST
B2: K2B-HL: MUC1 scFv CAR; single chain antibody SEQ ID NO: 10 (protein)
scFv: QVQLKESGPGLVAPSQSLSMTCTVSGFSLTTYGVHWVRQPPGKGLEWLVVIWSDGSTTYNSPLKSRLSISRDNSKSQVFLKMNSLQADDTAIYYCAKNYLGSLDYWGQGTSVTVSSGGGGSGGGGSGGGGSDVVLTQTPLSLPVSLGDQASISCRSSQSLVHNNGDTYLHWYLQKPGQSPKLLIYKVSNRFSGVPDRFSGSGSGTDFTFKISRVEAEDLGVYFCSQTTHVPLTFGAGTKLELK
modifications: left off: a dimerising Fc or GST

Key:
cells [1] = experiment: AP1903 amount needed in vitro for effective signaling of cells; assay type: cell-based; settings: conversion with 1600 Da MW
Protocol: The fixed dose of AP1903 for injection used, for example, may be 0.4 mg/kg intravenously infused over 2 hours. The amount of AP1903 needed in vitro for effective signaling of cells is 10-100 nM (1600 Da MW). This equates to 16-160 μg/L or ^˜0.016-1.6 μg/kg (1.6-160 μg/kg). Doses up to 1 mg/kg were well-tolerated in the Phase I study of AP1903 described above. Therefore, 0.4 mg/kg may be a safe and effective dose of AP1903 for this Phase I study in combination with the therapeutic cells.

Human pan T-cells = experiment: iC9 safety switch test: modified T cells incubated 24 hours with AP1903, viability by 7-AAD flow cytometry; assay type: cell-based; settings: 24 hours incubation, 0-1000 nM tested
Text: FIG. 7 is a series of flow cytometry plots depicting the abundance of cells moving from an area of live cells (the gated lower right quadrant) to an area populated by apoptotic cells (the upper left quadrant) as a function of increasing dosage of the induction agent (AP1903) in cells modified to express a therapeutic agent (a CARTyrin) alone or in combination with an inducible caspase polypeptide of the disclosure (encoded by an iC9 construct (also known as a “safety switch”) introduced into cells by a piggyBac (PB) transposase) at day 12 post nucleofection. […]
FIG. 9 is a pair of graphs depicting a quantification of the aggregated results shown either in FIG. 7 (left graph) or FIG. 8 (right graph). […]
To test the iC9 safety switch, each of the four modified T cells were incubated for 24 hours with 0, 0.1 nM, 1 nM, 10 nM, 100 nM or 1000 nM AP1903 (an induction agent for […]). Viability was assessed by flow cytometry using 7-aminoactinomycin D (7-AAD), a fluorescent intercalator, as a marker for cells undergoing apoptosis.

cells [2] = settings: cited from earlier work
[3] = cited from earlier work
cleaved, non-shed MUC1-C = biological target: T1, cleaved, non-shed MUC1-C; experiment: MUC1-scFv CAR function/epitope assay (degranulation, CD107a+ cells); assay type: cell-based; settings: cells that received the extracellular MUC1-C construct
Protocol: (§1) FIG. 14 is a graph depicting a MUC1-scFv CAR function assay. […] MUC1-scFv function is measured by the extent of degranulation of the cells in each condition contacted with the MUC1-scFv along the X-axis. Degranulation was measured as the percentage of total cells that were CD107a-positive (CD107a+).
(§2) The results of a functional assay are provided in the graph wherein MUC1-C scFv-CAR function was measured by the extent of degranulation of the cells in each condition contacted with the MUC1-scFv along the X-axis. Degranulation was measured as the percentage of total cells that were CD107a-positive (CD107a+). The chart summarizes the relative activity of each MUC1-C scFv-CAR during the functional assay.
(§3) The function of each of the MUC1-scFv CARs described in this example was assayed in K562 cells, Raji cells and RPMI8226 cells (“8226”) cells in either unmodified conditions or following transfection with MUC1 constructs (either full-length or MUC1-C) to generate modified K562 cells, modified Raji cells and modified 8226 cells. Function of each of the MUC1-scFv CARs was measured by the CAR's ability to degranulate each cell type. Degranulation was measured by the percent of total cells that express […] (percentage of […] cells).
(§4) The F1C-HL, M1A-LH and K2B-HL MUC1-scFv CARs were further tested to determine epitope binding.

full length MUC1 = biological target: T2, full length MUC1 (Homo sapiens, UniProt P15941); experiment: as above; assay type: cell-based; settings: cells expressing full-length MUC1
T2 construct: expressed in transfected cells; host or cells: K562, Raji and RPMI8226 cells
T2 sequence (P15941 24-1255): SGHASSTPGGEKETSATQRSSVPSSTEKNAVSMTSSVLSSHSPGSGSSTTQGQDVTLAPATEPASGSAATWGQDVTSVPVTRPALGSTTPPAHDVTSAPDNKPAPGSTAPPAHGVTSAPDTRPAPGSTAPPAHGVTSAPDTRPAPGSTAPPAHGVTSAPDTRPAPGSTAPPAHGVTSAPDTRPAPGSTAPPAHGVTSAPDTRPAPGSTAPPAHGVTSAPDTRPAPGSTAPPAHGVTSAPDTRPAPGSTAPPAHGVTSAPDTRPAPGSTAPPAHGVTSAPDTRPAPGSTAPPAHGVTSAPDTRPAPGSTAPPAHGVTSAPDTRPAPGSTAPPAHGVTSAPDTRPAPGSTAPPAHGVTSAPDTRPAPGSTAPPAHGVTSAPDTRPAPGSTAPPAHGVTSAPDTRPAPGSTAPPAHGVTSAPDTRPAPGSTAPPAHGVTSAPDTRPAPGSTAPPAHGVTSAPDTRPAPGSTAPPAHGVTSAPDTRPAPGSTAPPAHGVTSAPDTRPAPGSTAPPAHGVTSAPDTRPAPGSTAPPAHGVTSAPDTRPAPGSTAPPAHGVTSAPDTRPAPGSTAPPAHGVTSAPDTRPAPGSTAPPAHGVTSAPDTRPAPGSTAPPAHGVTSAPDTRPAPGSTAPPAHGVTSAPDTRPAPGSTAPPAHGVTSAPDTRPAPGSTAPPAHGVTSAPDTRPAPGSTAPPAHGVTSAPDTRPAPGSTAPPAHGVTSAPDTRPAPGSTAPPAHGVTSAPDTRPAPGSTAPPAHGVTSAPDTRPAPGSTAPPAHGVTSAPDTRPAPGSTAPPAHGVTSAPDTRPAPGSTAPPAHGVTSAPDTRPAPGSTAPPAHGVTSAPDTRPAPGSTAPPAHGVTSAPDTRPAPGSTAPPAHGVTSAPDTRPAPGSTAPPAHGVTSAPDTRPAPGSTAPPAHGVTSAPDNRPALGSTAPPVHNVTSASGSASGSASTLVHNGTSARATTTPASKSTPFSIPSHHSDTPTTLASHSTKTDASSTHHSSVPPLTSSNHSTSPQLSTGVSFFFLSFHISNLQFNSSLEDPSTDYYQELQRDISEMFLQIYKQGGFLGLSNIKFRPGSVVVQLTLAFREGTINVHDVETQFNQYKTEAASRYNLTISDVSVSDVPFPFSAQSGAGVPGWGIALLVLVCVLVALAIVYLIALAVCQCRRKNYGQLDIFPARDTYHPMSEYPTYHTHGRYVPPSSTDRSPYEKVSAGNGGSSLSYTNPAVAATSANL
Protocol: as §1, §2, §3, §4

[4] = tested on: MUC1 expressed on activated T cells; experiment: as above; assay type: cell-based, human
Protocol: as §2
As an initial study, MUC1 expression was assessed in different cell types (see FIG. 13). Cells included in this study: K562 cells (immortalized human chronic myelogenous leukemia cells), Raji cells (human hematopoietic cell line used as a model of cancer), Raji cells modified to express MUC1-C, activated T cells and RPMI8226 cells (human peripheral blood B cell plasmacytoma/myeloma cell line). MUC1 expression in each of these cells was assessed by staining with an anti-MUC1-N antibody.

unmodified cells = experiment: as above; assay type: cell-based, human
Protocol: as §3, §4

Molecule	amount needed for effective signaling of cells, converted (cells [1])	amount needed for effective signaling of cells, converted to dose (cells [1])	concentration at which AP1903 induces apoptosis (lowest of the study) (Human pan T-cells)	amount needed in vitro for effective signaling of cells (cells [2])	AP1903 plasma levels versus dose ([3]; 0.01-1.0 mg/kg dose range)	plasma levels as % of maximal concentration ([3]; 0.5 hours post-dose)	plasma levels as % of maximal concentration ([3]; 2 hours post-dose)	plasma levels as % of maximal concentration ([3]; 10 hours post-dose)	well-tolerated doses ([3]; Phase I study of AP1903)	mean Cmax ([3]; single doses 0.01-1.0 mg/kg infused IV over 2 hours, 24 healthy volunteers, plasma)	CAR reactivity / binding (degranulation) (cleaved, non-shed MUC1-C)	CAR reactivity / binding (degranulation) (full length MUC1)	CAR reactivity (degranulation) [4]	CAR binding (degranulation) (unmodified cells)
CC[C@H](C(=O)N1CCCC[C@H]1C(=O)O[C@H](CCc1ccc(OC)c(OC)c1)c1cccc(OCC(=O)NCCNC(=O)COc2cccc([C@@H](CCc3ccc(OC)c(OC)c3)OC(=O)[C@@H]3CCCCN3C(=O)[C@@H](CC)c3cc(OC)c(OC)c(OC)c3)c2)c1)c1cc(OC)c(OC)c(OC)c1 (relative stereo) [AP1903, 2-Piperidinecarboxylic acid, 1-[(2S)-1-oxo-2-(3,4,5-trimethoxyphenyl)butyl]−, 1,2-ethanediylbis[imino(2-oxo-2,1-ethanediyl)oxy-3,1-phenylene[(1R)-3-(3,4-dimethoxyphenyl)propylidene]]ester, [2S-[1(R*),2R*[S*[S*[1 (R*),2R*]]]]]-(9C1)]	16 to 160 µg/L	0.016 to 1.6 µg/kg	≤ 0.1 nM	10 to 100 nM	directly proportional to dose	approximately 18%	~7%	~1%	up to 1 mg/kg	10 to 1275 ng/mL				
B1											binds	reacts against full length MUC1; also recorded: binds	including that expressed on activated T cells	binds
B2											only reacts against cleaved, non-shed MUC1-C; also recorded: specifically binds	not full length MUC1		
